Test [1] deals with PGE2 production from IL-1β-stimulated MG-63 cells. As to the kind of experiment: Suppressing action on PGE2 production from IL-1β-stimulated MG-63 cells. The class given is cell-based. The note with it: Homo sapiens, IL-1β 1 ng/ml, 18 hours, read-out: PGE2 production suppression ratio. The gist of the method:
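Human osteosarcoma MG-63 cells (2×10^4/well) switched to 0.5% FBS medium, treated with compound, then stimulated with IL-1β at 1 ng/ml final for 18 h. Supernatant PGE2 measured by EIA; suppression ratio calculated against stimulated and unstimulated wells.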

Test [2] relates to PGD2 production from IgE-stimulated RBL-2H3 cells. The test is described as follows: Suppressing action on PGD2 production from IgE-stimulated RBL-2H3 cells. It counts as cell-based. The note with it: Rattus norvegicus, 10 min, IgE/DNP-BSA stimulated RBL-2H3 cells, read-out: PGD2 production suppression ratio. The source says:
(§1) 2. Suppressing Action on PGD2 and LTB4 Production from IgE-Stimulated RBL-2H3 Cells
(§2) Suppressing action on PGD2 and LTB4 production caused by IgE as an allergic stimulant was investigated by the following method. Cells of RBL-2H3, which is a rat mastocytoma cell line (purchased from ATCC), were suspended in DEMEM medium (GIBCO) containing 10% fetal bovine serum (BioFluid), inoculated to each well of 48-well culture plate at a density of 2×10^4 cells/well and cultured overnight. Then, IgE antiserum directed to dinitrophenylated BSA (henceforth DNP-BSA) was further added to each well, and the cells were cultured for 30 minutes. Then, the medium was changed to DEMEM medium containing 0.5% fetal bovine serum, a test compound was added with each well, and DNP-BSA was further added at a final concentration of 100 ng/ml as a stimulant. Ten minutes after the stimulant was added, the culture supernatant was collected, and the PGD2 concentration and LTB4 concentration in the culture supernatant were measured by using EIA kit (CAYMAN). By using a well which was not added with the stimulant as a negative control and a well which was added only with the stimulant as a positive control, suppressing ratios on mediator production were calculated from the production amounts of the mediators in the well added with the test compound using the following equation. PGD2 or LTB4 production suppression ratio=[1−(C−B)/(A−B)]×100 • A: PGD2 or LTB4 production amount of positive control • B: PGD2 or LTB4 production amount of negative control • C: PGD2 or LTB4 production amount in well added with test compound
(§3) Further, as control compounds for comparison, reference compound (1), 3-(2-cyclohexylmethyloxy-1,1′-biphenyl-5-yl)propionic acid described in WO99/19291, reference compounds (2) and (3), [2-(5,6,7,8-tetrahydro-5,5,8,8-tetramethyl-2-naphthalenyl)methyloxy-1,1′-biphenyl-5-yl]carboxylic acid [reference compound (2)] and 3-[3′-carboxy-2-(5,6,7,8-tetrahydro-5,5,8,8-tetramethyl-2naphthalenyl)methyloxy-1,1′-biphenyl-6-yl]propionic acid [reference compound (3)] described in U.S. Pat. No. 5,391,817 and Japanese Patent Unexamined Publication (Kokai) No. 7-22399, respectively, were used, and activities thereof were similarly measured.

The test system of test [3] is LTB4 production from IgE-stimulated RBL-2H3 cells. The test is described as follows: Suppressing action on LTB4 production from IgE-stimulated RBL-2H3 cells. The note with it: Rattus norvegicus, 10 min, IgE/DNP-BSA stimulated RBL-2H3 cells, read-out: LTB4 production suppression ratio. The class given is cell-based.
Source text: as §1, §2, §3

Test [4] concerns zymosan-stimulated footpad edema. The test is described as follows: Mouse zymosan-stimulated footpad edema reaction. It counts as in vivo. The note with it: ICR female mice, oral 0.1 to 500 mg/kg, compared with positive control group. How it is done: 3. Suppressing Effect on Mouse Zymosan-stimulated Footpad Edema Reaction A suppressing effect on footpad edema caused by zymosan as an inflammatory stimulant was studied by the following method. Groups of ICR female mice (6- to 7-week old) each consisting of eight mice were used for the test. A test compound was suspended or dissolved in purified water containing 0.5% methylcellulose and orally administered to the test animals at 0.1 to 500 mg/0.2 ml/kg. To the control group, purified water containing 0.5% methylcellulose was administered in a similar manner, which was not added with a test compound. One hour after the administration of the test compound, 0.02 ml of a suspension of zymosan suspended in physiological saline (Otsuka Pharmaceutical) at 1 mg/ml was subcutaneously administered to right hind leg footpad of each mouse. One and two hours after the administration of the zymosan suspension, volume of the right hind leg footpad was measured by using an apparatus for measuring a volume of mouse hind leg footpad edema (Unicom). A difference of the volume of footpad measured above and the footpad volume before the administration of the test compound measured beforehand was regarded as a volume of the edema. For the volume of the edema at 1 hour or 2 hours after the zymosan administration, a graph was prepared by indicating time in abscissa and the edema volume in ordinate, and an edema volume AUC (area under the curve) was obtained up to 2 hours by calculation using the following equation. Edema volume AUC (1·hour)=1/2×1×A+1×(A+B)/2 • A: Edema volume 1 hour after zymosan administration • B: Edema volume 2 hour after zymosan administration A suppression ratio on edema of test compound was obtained by calculation using the following equation. Edema suppression ratio (%)=[1−B/A]×100 • A: Edema volume AUC of positive control • B: Edema volume AUC of test compound administered group (2) Measurement Results

This is an account of results in patent US6867320B2, “Substituted phenylalkanoic acid derivatives and use thereof” (Asahi Kasei Pharma Corporation, priority 2002, dated 2005).

In the case of `O=C(O)CCc1ccc(OCC2CCCC2)c(-c2ccc3cc(O)ccc3c2)c1` [Compound 004, 3-[4-cyclopentylmethyloxy-3-(6-hydroxynaphthalen-2-yl)phenyl]propionic acid], the inhibition at 0.4 µM in test [1], in test [2] and in test [3] was at least 50% throughout. Besides, the “suppression of footpad edema caused by zymosan” value (“suppression” below) in test [4] is reported as “suppressed footpad edema”.
With `O=C(O)CCc1ccc(OCC2CCCC2)c(-c2ccc3c(O)cccc3c2)c1` [Compound 010, 3-[4-cyclopentylmethyloxy-3-(5-hydroxynaphthalen-2-yl)phenyl]propionic acid], the inhibition at 0.4 µM in test [1], in test [2] and in test [3] was at least 50% each time. Besides, the “suppression” value in test [4] is given as “suppressed footpad edema”.
For the compound `O=C(O)CCc1ccc(OCC2CCCCC2)c(-c2ccc3ccccc3c2)c1` [Compound 066, 3-[4-cyclohexylmethyloxy-3-(naphthalen-2-yl)phenyl]propionic acid], the inhibition at 0.4 µM in test [1], in test [2] and in test [3] was at least 50% each time. In addition, the “suppression” value in test [4] is given as “suppressed footpad edema”.
With `O=C(O)CCc1ccc(OCC2CCCC2)c(-c2ccc3cc(NC(=O)c4ccco4)ccc3c2)c1` [Compound 081, 3-(4-cyclopentylmethyloxy-3-{6-[(furan-2-carbonyl)amino]naphthalen-2-yl}phenyl)propionic acid], the inhibition at 0.4 µM in test [1], in test [2] and in test [3] was at least 50% in each case.
As for `Nc1cc(CCC(=O)O)cc(-c2ccc3ccccc3c2)c1OCC1CCCC1` [Compound 095, 3-[3-amino-4-cyclopentylmethyloxy-5-(naphthalen-2-yl)phenyl]propionic acid], the inhibition at 0.4 µM in test [1], in test [2] and in test [3] was at least 50% throughout. In test [4], the “suppression” value is on record as “suppressed footpad edema”.
On to `COC(=O)CCc1ccc(OCC2CCCC2)c(-c2ccc3[nH]ccc3c2)c1` [Compound 099, methyl 3-[4-cyclopentylmethyloxy-3-(1H-indol-5-yl)phenyl]propionate], for which the inhibition at 0.4 µM in test [1], in test [2] and in test [3] was at least 50% in each case. For the same compound, the “suppression” value in test [4] is on record as “suppressed footpad edema”.
With `O=C(O)CCc1ccc(OCc2ccc(Cl)cc2Cl)c(-c2ccc3[nH]ccc3c2)c1` [Compound 162, 3-[4-(2,4-dichlorophenylmethyloxy)-3-(1H-indol-5-yl)phenyl]propionic acid], the inhibition at 0.4 µM in test [1], in test [2] and in test [3] was at least 50% each time.
In the case of `CCCCOc1ccc(COc2ccc(CCC(=O)OC)cc2-c2ccc3[nH]ccc3c2)cc1` [Compound 185, methyl 3-{4-[4-(butyloxy)phenylmethyloxy]-3-(1H-indol-5-yl)-phenyl}propionate], the inhibition at 0.4 µM in test [2] and in test [3] was at least 50% each time. For the same compound, in test [4], the “suppression” value is “suppressed footpad edema”.
Regarding `O=C(O)CCc1ccc(OCCc2cccc(Cl)c2)c(-c2ccc3[nH]ccc3c2)c1` [Compound 211, 3-{4-[2-(3-chlorophenyl)ethyloxy]-3-(1H-indol-5-yl)phenyl}propionic acid], the inhibition at 0.4 µM in test [1], in test [2] and in test [3] was at least 50% each time.
For `CCn1ccc2cc(-c3cc(CCC(=O)O)ccc3OCc3ccccc3Cl)ccc21` [Compound 250, 3-[4-(2-chlorophenylmethyloxy)-3-(1-ethyl-1H-indol-5-yl)phenyl]propionic acid], the inhibition at 0.4 µM in test [1], in test [2] and in test [3] was at least 50% in each case.
With `Nc1nc2ccc(-c3cc(CCC(=O)O)ccc3OCC3CCCC3)cc2s1` [Compound 287, 3-[3-(2-aminobenzothiazol-6-yl)-4-cyclopentylmethyloxyphenyl]propionic acid], the inhibition at 0.4 µM in test [1], in test [2] and in test [3] was at least 50% in each case.
Consider `O=C(O)CCc1cc(F)c(OC2CCCC2)c(-c2ccc3[nH]ncc3c2)c1` [Compound 481, 3-[4-cyclopentyloxy-3-fluoro-5-(1H-indazol-5-yl)phenyl]propionic acid], for which the inhibition at 0.4 µM in test [1], in test [2] and in test [3] was at least 50% each time.
In the case of `Cn1ncc2cc(-c3cc(CCC(=O)O)cc(F)c3OC3CCCC3)ccc21` [Compound 483, 3-[4-cyclopentyloxy-3-fluoro-5-(1-methyl-1H-indazol-5-yl)phenyl]propionic acid], the inhibition at 0.4 µM in test [1], in test [2] and in test [3] was at least 50% throughout.
Consider `Nc1cc(CCC(=O)O)cc(-c2ccc3[nH]ncc3c2)c1OC1Cc2ccccc2C1` [Compound 486, 3-[3-amino-4-(indan-2-yloxy)-5-(1H-indazol-5-yl)phenyl]propionic acid], for which the inhibition at 0.4 µM in test [1], in test [2] and in test [3] was at least 50% throughout.
Consider `CCn1ncc2cc(-c3cc(CCC(=O)O)cc(N)c3OC3Cc4ccccc4C3)ccc21` [Compound 489, 3-[3-amino-5-(1-ethyl-1H-indazol-5-yl)-4-(indan-2-yloxy)phenyl]propionic acid], for which the inhibition at 0.4 µM in test [1], in test [2] and in test [3] was at least 50% each time.
On to `Cn1ncc2cc(-c3cc(CCC(=O)O)cc(O)c3OC3Cc4ccccc4C3)ccc21` [Compound 569, 3-[4-(indan-2-yloxy)-3-hydroxy-5-(1-methyl-1H-indazol-5-yl)phenyl]propionic acid], for which the inhibition at 0.4 µM in test [1], in test [2] and in test [3] was at least 50% throughout.
As to `Cc1cc(CCC(=O)O)cc(-c2ccc3c(cnn3C)c2)c1OC1CCCC1` [Compound 572, 3-[4-cyclopentyloxy-3-methyl-5-(1-methyl-1H-indazol-5-yl)phenyl]propionic acid], the inhibition at 0.4 µM in test [1], in test [2] and in test [3] was at least 50% throughout.
Take `CN(C)c1cc(CCC(=O)O)cc(-c2ccc3c(cnn3C)c2)c1OC1Cc2ccccc2C1` [Compound 586, 3-[4-(indan-2-yloxy)-3-(N,N-dimethylamino)-5-(1-methyl-1H-indazol-5-yl)phenyl]propionic acid]: the inhibition at 0.4 µM in test [1], in test [2] and in test [3] was at least 50% in each case.
